Test results from US8597264B2, “Apparatuses, methods, and compositions for the treatment and prophylaxis of chronic wounds” (KCI Licensing, Inc., priority 2011, dated 2013).

Key:
[1] = Release of alpha-lipoic acid from the coating on foam pads; type: physicochemical; conditions: coating on foam pads (FIG. 4)
Excerpt: Polyurethane open-cell reticulated foam pads were selected as the scaffold and were immersed in a solution containing 1.5 wt % of alpha-lipoic acid and 4.5 wt % 225-bloom beef gelatin (and, where applicable, 0.3% EDTA). Gelatin was used as a biocompatible binding agent with good oxygen barrier and sustained release properties for alpha-lipoic acid as well as for its ability to act as a sacrificial substrate for surrounding gelatinases. Alpha-lipoic acid was pre-dissolved in ethanol and then mixed into the final solution. The foam pads were immersed for a sufficient amount of time to coat the pathways formed within the open-cell reticulated foam as described above with respect to the scaffold. After immersion, the foam pads were withdrawn, compressed to remove excess solution, and dried to a constant weight. In some cases, sodium benzoate was added to the formulation as a preservative. Dried foams comprised, by weight, 2% alpha-lipoic acid, 6% gelatin and, where applicable, 0.4% EDTA.
A National Diagnostics Hydrogen Peroxide Assay Kit was used to evaluate the antioxidant properties of foam pads and the formulated coated foam pads containing alpha-lipoic acid. Foam pads coated only with gelatin were used as controls. FIG. 2 is a graph showing the percentage of hydrogen peroxide reduction due to reaction with alpha-lipoic acid. […]

MMP-9 = target: T1, MMP-9 (Homo sapiens, UniProt P14780); test: MMP-9 Colorimetric Drug Discovery Kit (Biomol): MMP activity reduction by dressings; type: biochemical; conditions: compared to control samples with no MMP-9 inhibitor activity
T1 construct: purchased Biomol
T1 sequence (P14780 107-444 limits assumed): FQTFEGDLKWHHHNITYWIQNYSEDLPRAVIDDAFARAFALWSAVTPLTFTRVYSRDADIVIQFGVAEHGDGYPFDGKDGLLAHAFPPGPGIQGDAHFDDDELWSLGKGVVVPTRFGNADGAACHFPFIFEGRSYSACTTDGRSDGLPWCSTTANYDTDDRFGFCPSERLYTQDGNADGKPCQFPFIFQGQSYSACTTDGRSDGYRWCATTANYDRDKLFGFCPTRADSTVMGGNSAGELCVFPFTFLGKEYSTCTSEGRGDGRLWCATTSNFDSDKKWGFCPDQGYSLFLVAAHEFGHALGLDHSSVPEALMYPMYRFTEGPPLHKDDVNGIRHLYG
Excerpt: A National Diagnostics Hydrogen Peroxide Assay Kit was used to evaluate the antioxidant properties of foam pads and the formulated coated foam pads containing alpha-lipoic acid. Foam pads coated only with gelatin were used as controls. FIG. 2 is a graph showing the percentage of hydrogen peroxide reduction due to reaction with alpha-lipoic acid. An MMP-9 Colorimetric Drug Discovery Kit (Biomol) was used to evaluate the MMP inhibiting/inactivating ability of the formulated foam pads containing alpha-lipoic acid/gelatin (ALA) and gelatin alone (GF GEL). The controls were uncoated foam pads and known potent MMP inactivating drug, NNGH (C13H20N2O5S, available from Enzo® Life Sciences). […] FIG. 4 is a graph showing the release of alpha-lipoic acid from the coating on the foam pads. The coating delivers approximately 70% of the total alpha-lipoic acid within the first day, while the remaining alpha-lipoic acid is released during the next 2-3 days.
Coated polyurethane foam (GranuFoam®) scaffolds described above in Examples 1-2 were further assayed for their ability to reduce MMP activity as compared to non-coated collagen based scaffold such as the Biostep™ and Promogran™ products.

O=C(O)CCCCC1CCSS1 (stereo not drawn) [alpha-lipoic acid]
time over which the remaining alpha-lipoic acid is released ([1]; after the first day): 2 to 3 days
share of the total alpha-lipoic acid delivered by the coating ([1]; within the first day): approximately 70%

COc1ccc(S(=O)(=O)N(CC(=O)NO)CC(C)C)cc1 [NNGH]
% MMP-9 activity reduction (MMP-9; Table 1 experiment): 90.2%
% MMP-9 activity reduction (MMP-9; Table 2 experiment): 103.8%
